Data reported in ChEMBL document CHEMBL1275444, “Fitness trade-offs in blaTEM evolution” (2008).
Active and inactive are the calls of the source. The calls are words filed in the database; no cut-off is given here.

Experiments:
Escherichia coli [1] = test: Antibacterial activity against Escherichia coli TP1 harboring pBR322 carrying TEM-12 assessed as inhibition of bacterial growth at <=16 ug/ml after 18 hrs; type: functional, organism-based
Escherichia coli [2] = test: Antibacterial activity against Escherichia coli TP1 harboring pBR322 carrying TEM-10 assessed as inhibition of bacterial growth at >64 ug/ml after 18 hrs; type: functional, organism-based
Escherichia coli [3] = tested on: Escherichia coli
Description: Ratio of Kcat to Km for Escherichia coli Beta-Lactamase TEM-12

| SMILES | inhibition (Escherichia coli [1]) | inhibition (Escherichia coli [2]) | kcat/Km (Escherichia coli [3]) |
| --- | --- | --- | --- |
| CC(C)(O/N=C(\C(=O)N[C@@H]1C(=O)N2C(C(=O)[O-])=C(C[n+]3ccccc3)CS[C@H]12)c1csc(N)n1)C(=O)O | inactive | Active |  |
| CC1(C)S[C@@H]2[C@H](NC(=O)[C@H](N)c3ccccc3)C(=O)N2[C@H]1C(=O)O |  |  | 4.2 ×10⁷ /M/s |
